These results are taken from patent US5808139A (Ligand Pharmaceuticals Incorporated, priority 1994, dated 1998).

Entries after “also recorded” stand apart in the source; their conditions may differ.

One assay relates to T47D cells. Description: Alkaline phosphatase activity in T47D cells (induction and its inhibition). The class given is cell-based, human. Conditions: for Agonist activity, alkaline phosphatase induction: ligand alone, three days. The text has this: The functional activities of the cyclocymopol analogues in the human breast cell line, T47D, were also investigated. T47D cells have proven to be a particularly useful model to investigate the molecular actions of sex steroids because they contain endogenous functional receptors for, and respond to, progestins, and their respective antagonists. Moreover, these cells contain exceptionally high titers of progesterone receptors and are exquisitely sensitive to the actions of progestins in a manner quite similar to their actions in normal and neoplastic mammary epithelial cells. In T47D cells, progestins induce de novo synthesis of a plasma-associated alkaline phosphatase, which has been reported to be similar, if not identical, to the alkaline phosphatase present in the normal breast and human milk. These tests were conducted according to the following illustrative example. […] For routine induction of alkaline phosphatase, cells were treated for three days with two media changes and harvested as described below. […] Nuclei were sedimented at 2500 rpm, and the supernatant was saved as cytosol. The protein content of the cytosol was assayed by the method of Bradford. Alkaline phosphatase activity was determined by incubating one volume of cell extract with three volumes of 1 mg/ml p-nitrophenol phosphate prepared in DEAM (1M diethanolamine, pH=9, containing 2 mM magnesium chloride) at room temperature for 20 min. At the end of the incubation time, the reaction was stopped with an equal volume of 1N NaOH. Ten standards of p-nitrophenol were prepared in DEAM buffer and absorbance was read at 405 nm. Alkaline phosphatase activity is expressed as pmol p-nitrophenol formed/min/mg protein.

The target of the next assay is T1, glucocorticoid receptor (Homo sapiens, UniProt P04150).
T1 sequence (P04150 1-777): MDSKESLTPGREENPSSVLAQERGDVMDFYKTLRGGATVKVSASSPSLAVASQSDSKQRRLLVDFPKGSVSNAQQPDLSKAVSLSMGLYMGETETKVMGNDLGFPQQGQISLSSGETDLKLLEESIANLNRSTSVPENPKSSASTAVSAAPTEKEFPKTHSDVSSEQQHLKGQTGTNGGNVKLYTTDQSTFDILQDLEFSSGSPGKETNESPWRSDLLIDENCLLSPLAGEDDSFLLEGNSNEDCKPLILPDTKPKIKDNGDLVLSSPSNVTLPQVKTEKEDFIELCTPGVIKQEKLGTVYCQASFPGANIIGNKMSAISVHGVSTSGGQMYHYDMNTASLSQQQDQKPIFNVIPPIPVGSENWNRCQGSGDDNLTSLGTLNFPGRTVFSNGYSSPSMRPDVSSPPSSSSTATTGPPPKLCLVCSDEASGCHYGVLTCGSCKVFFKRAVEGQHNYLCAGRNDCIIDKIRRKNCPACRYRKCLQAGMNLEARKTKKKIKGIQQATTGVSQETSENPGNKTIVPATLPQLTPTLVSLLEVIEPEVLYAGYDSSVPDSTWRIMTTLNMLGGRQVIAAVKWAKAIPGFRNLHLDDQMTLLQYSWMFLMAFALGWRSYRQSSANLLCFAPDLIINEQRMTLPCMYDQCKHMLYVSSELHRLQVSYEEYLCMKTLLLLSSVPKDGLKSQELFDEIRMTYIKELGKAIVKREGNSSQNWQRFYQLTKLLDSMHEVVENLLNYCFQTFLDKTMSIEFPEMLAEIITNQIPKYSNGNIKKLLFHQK
As to the kind of experiment: Cross-reactivity, glucocorticoid receptor activation (agonist and antagonist). The class given is cell-based. The text has this: This assay is described in further detail in U.S. Pat. Nos. 4,981,784 and 5,071,773, which are incorporated herein by reference. The co-transfection assay provides a method for identifying functional ligands (either agonists which mimic, or antagonists which inhibit, the effect of hormones) for ligand-responsive receptor proteins.
The co-transfection assay provides a mechanism to evaluate ability of a compound to function as an agonist or antagonist of the activity modulated by an intracellular receptor. The co-transfection assay mimics an in vivo system in the laboratory. In the co-transfection assay, a cloned gene for an intracellular receptor is introduced by transfection (a procedure to induce cells to take up foreign genes) into a background cell substantially devoid of endogenous intracellular receptors. This introduced gene directs the recipient cells to make the intracellular receptor protein. A second gene is also introduced (co-transfected) into the same cells in conjunction with the intracellular receptor gene. This second gene functions as a reporter for the transcription-modulating activity of the target intracellular receptor. The reporter acts as a surrogate for the products normally expressed by a gene under control of the target receptor and its natural hormone.
A preferred reporter gene is one which expresses the firefly enzyme luciferase. The co-transfection assay can detect small molecule agonists or antagonists of target intracellular receptors. Exposing the cells to an agonist ligand increases reporter activity in the transfected cells that can be conveniently measured, reflecting ligand-dependent, intracellular receptor-mediated increases in reporter transcription. To detect antagonists, the co-transfection assay is carried out in the presence of a constant concentration of an agonist known to induce a defined reporter signal. […]
Co-transfected cells are exposed to a medium to which is added the potential ligand that is being evaluated. […] Antagonist activity is evaluated by adding the candidate ligand and a known agonist to the co-transfected cells. […]

For `C=C1CC[C@@H](Br)C(C)(C)[C@@H]1Cc1cc(OC)c(Br)cc1OC(C)=O` [SO-52], the “Agonist activity, alkaline phosphatase induction” value in the assay on T47D cells is reported as “very weak agonists”. The “Agonist/antagonist activity with glucocorticoid receptor” value (“Agonist/antagonist activity” below) on glucocorticoid receptor was “slight agonist activity”.
In the case of `CC#C[C@]1(O)CC[C@H]2[C@@H]3CCC4=CC(=O)CCC4=C3[C@@H](c3ccc(N(C)C)cc3)C[C@@]21C` [RU-486, reference compound], the “Inhibition of alkaline phosphatase induced by SO-54 and SO-51” value with T47D cells (induction by SO-54 or SO-51, FIG. 11) is recorded as “blocked”. Besides, the “Agonist/antagonist activity” value on glucocorticoid receptor is recorded as “significant activity”.
Regarding `C=C1CC[C@@H](Br)C(C)(C)[C@@H]1Cc1cc(OC)c(Br)cc1O` [SO-53, (3R)-cyclocymopol monomethyl ether], the “Inhibition of progesterone-stimulated alkaline phosphatase activity” value with T47D cells (1.0 nM progesterone) is reported as “attenuated this induction in a concentration-dependent manner; also recorded: attenuated the effects of progesterone in a concentration-dependant manner”. The “Inhibition of R5020-induced alkaline phosphatase activity” value with T47D cells (R5020-induced) is “effective antagonist of the progesterone mimic”. Moreover, the “Agonist activity, alkaline phosphatase induction” value in the assay with T47D cells is “very weak agonists”. For the same molecule, on glucocorticoid receptor, the “Agonist/antagonist activity” value is listed as “neither agonist nor antagonist activity”.
